Values belong to the compound of their own block, whether it stands above or below them.
Tests used:
[1] = biological target: T1, Thymidylate synthase (Lactobacillus casei) (UniProt P00469); details: Lacticaseibacillus casei
T1 sequence (whole entry): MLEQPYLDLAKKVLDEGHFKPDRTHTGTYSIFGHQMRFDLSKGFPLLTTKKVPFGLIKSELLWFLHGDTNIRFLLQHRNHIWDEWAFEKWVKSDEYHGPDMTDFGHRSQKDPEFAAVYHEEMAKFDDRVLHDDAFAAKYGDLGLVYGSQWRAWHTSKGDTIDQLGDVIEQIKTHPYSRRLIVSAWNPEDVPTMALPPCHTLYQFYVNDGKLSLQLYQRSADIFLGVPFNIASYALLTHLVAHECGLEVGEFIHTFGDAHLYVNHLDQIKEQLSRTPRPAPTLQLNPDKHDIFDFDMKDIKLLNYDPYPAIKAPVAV

[2] = biological target: T1, Thymidylate synthase (Lactobacillus casei); details: Lacticaseibacillus casei; 10 uM
[3] = biological target: T1, Thymidylate synthase (Lactobacillus casei); details: Lacticaseibacillus casei; remark: listed apart in the source
[4] = biological target: T1, Thymidylate synthase (Lactobacillus casei); details: Lacticaseibacillus casei; remark: listed apart in the source
[5] = biological target: T1, Thymidylate synthase (Lactobacillus casei); details: Lacticaseibacillus casei; remark: listed apart in the source
[6] = biological target: T1, Thymidylate synthase (Lactobacillus casei); details: Lacticaseibacillus casei; remark: listed apart in the source
[7] = biological target: T1, Thymidylate synthase (Lactobacillus casei); details: Lacticaseibacillus casei; remark: listed apart in the source
[8] = Apparent second order rate constant determined as the ratio of kinact/Ki
[9] = biological target: T1, Thymidylate synthase (Lactobacillus casei); details: Lacticaseibacillus casei; remark: listed apart in the source
[10] = biological target: T1, Thymidylate synthase (Lactobacillus casei); details: Lacticaseibacillus casei; remark: listed apart in the source
[11] = biological target: T1, Thymidylate synthase (Lactobacillus casei); assay: Kinetic constant for the inactivation of Lactobacillus casei thymidylate synthase was determined at 10 uM concentration using 0 uM of substrate; details: Lacticaseibacillus casei
[12] = biological target: T1, Thymidylate synthase (Lactobacillus casei); assay: Kinetic constant for inactivation of Lactobacillus casei thymidylate synthase from double reciprocal plots; details: Lacticaseibacillus casei

K inact [1]: 0.014 s⁻¹
K obs / s [2]: 0.0084
Structure (SMILES): CC1=C(C)C(=O)C(c2cn([C@H]3C[C@H](O)[C@@H](COP(=O)(O)O)O3)c(=O)[nH]c2=O)=C(C)C1=O

Structure (SMILES): CC1=C(C)C(=O)C(c2cn([C@H]3C[C@H](O)[C@@H](COP(=O)(O)O)O3)c(=O)[nH]c2=O)=CC1=O
k obs [3]: 0.0052 s⁻¹
k obs [4]: 0.0066 s⁻¹
k obs [5]: 0.015 s⁻¹
K inact [1]: 0.015 s⁻¹
k obs [6]: 0.0092 s⁻¹
k obs [7]: 0.0028 s⁻¹
Ratio [8]: 2.5
k obs [9]: 0.011 s⁻¹
k obs [10]: 0.011 s⁻¹

Structure (SMILES): CC1=C(C)C(=O)C(c2cn([C@H]3C[C@H](O)[C@@H](CO)O3)c(=O)[nH]c2=O)=CC1=O
k obs [11]: 4e-05 s⁻¹

K inact [12]: 0.065 s⁻¹
Ratio [8]: 3.2
Structure (SMILES): O=C1C=CC(=O)C(c2cn([C@H]3C[C@H](O)[C@@H](COP(=O)(O)O)O3)c(=O)[nH]c2=O)=C1
